According to ChEMBL document CHEMBL1177792, “Pre-clinical characterization of aryloxypyridine amides as histamine H3 receptor antagonists: identification of candidates for clinical development” (Bioorg Med Chem Lett, 2010):

Legend:
[1] = target: T1, Histamine H3 receptor (Homo sapiens, UniProt Q9Y5N1); test: Displacement of [125I]-iodoproxyfan from human recombinant histamine H3 receptor expressed in human SK-N-MC cells after 1 hr by scintillation counting; format: cell-based
[2] = target: T2, Histamine H3 receptor (Rattus norvegicus, UniProt Q9QYN8); test: Antagonist activity at rat histamine H3 receptor expressed in human SK-N-MC cells assessed as inhibition of forskolin-induced cAMP accumulation after 6 hrs; format: functional, cell-based; conditions: read-out: pA2 (converted)
T2 sequence (Q9QYN8 whole entry): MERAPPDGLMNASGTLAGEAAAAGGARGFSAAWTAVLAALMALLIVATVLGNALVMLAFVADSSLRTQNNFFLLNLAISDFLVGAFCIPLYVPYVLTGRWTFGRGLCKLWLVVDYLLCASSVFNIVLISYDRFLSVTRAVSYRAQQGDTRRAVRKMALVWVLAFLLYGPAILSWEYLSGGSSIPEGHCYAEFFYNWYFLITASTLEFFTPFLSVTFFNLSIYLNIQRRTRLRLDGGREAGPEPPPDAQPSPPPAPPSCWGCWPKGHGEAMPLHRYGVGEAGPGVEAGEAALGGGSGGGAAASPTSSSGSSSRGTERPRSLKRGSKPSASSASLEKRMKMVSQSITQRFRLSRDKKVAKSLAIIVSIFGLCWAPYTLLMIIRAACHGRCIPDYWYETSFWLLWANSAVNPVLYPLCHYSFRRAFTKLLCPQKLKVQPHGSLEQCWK

[3] = Metabolic stability in rat liver microsomes assessed as compound remaining after 30 mins; format: ADME, Microsome; conditions: read-out: Stability
[4] = Metabolic stability in human liver microsomes assessed as compound remaining after 30 mins; format: ADME, Microsome; conditions: read-out: Stability
[5] = Drug level in Wistar rat brain at 10 mg/kg, po after 1 hr; format: ADME, organism-based; parameters: dose 10 mg/kg, route oral; conditions: read-out: Drug uptake
[6] = Plasma concentration in Wistar rat at 10 mg/kg, po after 1 hr; format: ADME, organism-based; parameters: dose 10 mg/kg, route oral; conditions: read-out: Drug uptake
[7] = target: T2, Histamine H3 receptor; test: Binding affinity to histamine H3 receptor in rat brain; format: tissue-based
[8] = test system: Rattus norvegicus; test: Ex vivo receptor occupancy of histamine H3 receptor in Wistar rat brain at 10 mg/kg, po after 1 hr by autoradiography; format: functional
[9] = Clearance in Sprague-Dawley rat at 1 mg/kg, iv and 10 mg/kg, po; format: ADME, organism-based; conditions: in vivo
[10] = Volume of distribution at steady state in Sprague-Dawley rat at 1 mg/kg, iv and 10 mg/kg, po; format: ADME, organism-based; conditions: in vivo, read-out: Vdss
[11] = Half life in Sprague-Dawley rat at 1 mg/kg, iv and 10 mg/kg, po; format: ADME, organism-based; conditions: in vivo
[12] = Bioavailability in Sprague-Dawley rat at 1 mg/kg, iv and 10 mg/kg, po; format: ADME, organism-based; conditions: in vivo
[13] = target: T3, Voltage-gated inwardly rectifying potassium channel KCNH2 (Homo sapiens, UniProt Q12809); test: Displacement of radiolabeled astemizole from human ERG
T3 sequence (Q12809 whole entry): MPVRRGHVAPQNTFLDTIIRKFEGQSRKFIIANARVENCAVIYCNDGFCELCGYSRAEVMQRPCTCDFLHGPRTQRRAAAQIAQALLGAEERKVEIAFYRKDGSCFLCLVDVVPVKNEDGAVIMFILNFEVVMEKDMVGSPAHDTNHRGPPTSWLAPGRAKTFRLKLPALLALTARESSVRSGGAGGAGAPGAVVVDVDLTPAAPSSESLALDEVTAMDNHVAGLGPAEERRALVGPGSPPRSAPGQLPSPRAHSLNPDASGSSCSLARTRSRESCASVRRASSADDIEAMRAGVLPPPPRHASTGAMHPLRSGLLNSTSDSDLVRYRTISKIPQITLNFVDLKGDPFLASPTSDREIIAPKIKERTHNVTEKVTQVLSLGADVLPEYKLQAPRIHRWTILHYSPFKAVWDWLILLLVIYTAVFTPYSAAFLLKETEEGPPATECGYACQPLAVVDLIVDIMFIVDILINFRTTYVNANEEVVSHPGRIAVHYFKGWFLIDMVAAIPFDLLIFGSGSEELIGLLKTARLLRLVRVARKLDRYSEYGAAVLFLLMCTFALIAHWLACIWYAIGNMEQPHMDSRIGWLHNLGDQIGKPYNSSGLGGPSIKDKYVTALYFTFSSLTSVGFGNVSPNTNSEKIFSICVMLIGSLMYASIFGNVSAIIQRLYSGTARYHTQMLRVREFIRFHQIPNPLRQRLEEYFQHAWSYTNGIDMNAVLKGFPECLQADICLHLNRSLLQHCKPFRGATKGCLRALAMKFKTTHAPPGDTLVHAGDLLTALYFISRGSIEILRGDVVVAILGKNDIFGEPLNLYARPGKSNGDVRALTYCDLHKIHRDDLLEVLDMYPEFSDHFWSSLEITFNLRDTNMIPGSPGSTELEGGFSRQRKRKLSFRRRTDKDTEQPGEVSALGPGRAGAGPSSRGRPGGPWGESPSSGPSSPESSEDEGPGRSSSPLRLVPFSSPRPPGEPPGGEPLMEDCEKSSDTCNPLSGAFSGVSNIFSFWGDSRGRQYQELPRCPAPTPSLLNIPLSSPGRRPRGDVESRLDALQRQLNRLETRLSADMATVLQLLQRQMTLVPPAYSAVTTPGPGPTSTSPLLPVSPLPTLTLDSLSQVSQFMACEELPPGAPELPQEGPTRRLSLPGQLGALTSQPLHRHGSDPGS

[14] = target: hERG (KCNH2) (Homo sapiens, UniProt Q12809); test: Displacement of radiolabeled astemizole from human ERG at 10 uM; conditions: probe radiolabeled astemizole
hERG (KCNH2), sequence (Q12809 whole entry): as above

[15] = target: T3, Voltage-gated inwardly rectifying potassium channel KCNH2; test: Inhibition of human ERG by patch clamp technique
[16] = target: T1, Histamine H3 receptor; test: Antagonist activity at human histamine H3 receptor expressed in human SK-N-MC cells assessed as inhibition of forskolin-induced cAMP accumulation after 6 hrs; format: functional, cell-based; conditions: read-out: pA2 (converted)
[17] = Clearance in Beagle dog at 1 mg/kg, iv and 5 mg/kg, po; format: ADME, organism-based, Canis lupus familiaris; conditions: in vivo
[18] = Volume of distribution at steady state in Beagle dog at 1 mg/kg, iv and 5 mg/kg, po; format: ADME, organism-based, Canis lupus familiaris; conditions: in vivo, read-out: Vdss
[19] = Half life in Beagle dog at 1 mg/kg, iv and 5 mg/kg, po; format: ADME, organism-based, Canis lupus familiaris; conditions: in vivo
[20] = Bioavailability in Beagle dog at 1 mg/kg, iv and 5 mg/kg, po; format: ADME, organism-based, Canis lupus familiaris; conditions: in vivo

T1 sequence (Q9Y5N1 whole entry): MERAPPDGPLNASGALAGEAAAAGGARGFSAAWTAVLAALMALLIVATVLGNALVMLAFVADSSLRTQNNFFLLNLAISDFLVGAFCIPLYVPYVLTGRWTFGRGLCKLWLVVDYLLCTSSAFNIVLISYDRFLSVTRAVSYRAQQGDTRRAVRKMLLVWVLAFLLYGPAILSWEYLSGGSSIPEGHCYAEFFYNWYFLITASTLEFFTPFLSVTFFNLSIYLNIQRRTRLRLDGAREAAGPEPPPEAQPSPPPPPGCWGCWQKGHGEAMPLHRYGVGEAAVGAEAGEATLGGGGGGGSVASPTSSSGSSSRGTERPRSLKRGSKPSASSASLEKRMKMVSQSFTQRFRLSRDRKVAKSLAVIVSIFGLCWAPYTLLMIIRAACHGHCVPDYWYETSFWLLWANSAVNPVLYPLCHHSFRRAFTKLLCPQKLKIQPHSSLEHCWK

## O=C(c1ccc(Sc2ccccc2)nc1)N1CCCN(C2CCC2)CC1
[1]
  Ki: 0.0023 µM

## O=C(c1ccc(Oc2cccc(Cl)c2)nc1)N1CCCN(C2CC2)CC1
[1]
  Ki: 0.017 µM
[2]
  Kb: 0.0115 µM
[3]
  remaining at 0.5 h: 41%
[4]
  remaining at 0.5 h: 70%
[5]
  concentration at 1 h: 0.3 µM
[6]
  concentration at 1 h: 0.31 µM
[7]
  Ki: 0.075 µM

## O=C(c1ccc(Oc2cccc(F)c2)nc1)N1CCCN(C2CCC2)CC1
[1]
  Ki: 0.0041 µM
[3]
  remaining at 0.5 h: 86%
[4]
  remaining at 0.5 h: 99%
[8]
  Activity: 88%
[5]
  concentration at 1 h: 1.96 µM
[6]
  concentration at 1 h: 0.36 µM
[9]
  clearance: 7.08 L/h/kg
[10]
  Vd: 4.2 L/kg
[11]
  half-life: 0.8 h
[12]
  bioavailability: 11%
[13]
  IC50: > 10 µM
[14]
  inhibition at 10 µM: 0%
[15]
  IC50: 5.4 µM

## O=C(c1cccc(Oc2ccc(Cl)c(Cl)c2)n1)N1CCCN(C2CC2)CC1
[1]
  Ki: 1.04 µM

## O=C(c1ccc(Oc2ccccc2Cl)nc1)N1CCN(C2CCCC2)CC1
[1]
  Ki: 0.04 µM

## O=C(c1ccc(Oc2ccc(F)cc2)nc1)N1CCCN(C2CC2)CC1
[1]
  Ki: 0.025 µM
[16]
  Kb: 0.00158 µM

## O=C(c1cc(Oc2ccc(F)cc2)ccn1)N1CCCN(C2CCC2)CC1
[1]
  Ki: 0.0057 µM

## O=C(c1ccc(Oc2ccc(F)cc2)nc1)N1CCN(C2CC2)CC1
[1]
  Ki: 0.43 µM

## O=C(c1ccc(Sc2ccc(F)cc2)nc1)N1CCCN(C2CCC2)CC1
[1]
  Ki: 0.029 µM

## CCN1CCCN(C(=O)c2ccc(Oc3ccc(F)cc3)nc2)CC1
[1]
  Ki: 0.034 µM

## O=C(c1ccc(Oc2ccc(Cl)cc2)nc1)N1CCCN(C2CC2)CC1
[1]
  Ki: 0.013 µM

## O=C(c1cc(Oc2ccccc2)ccn1)N1CCCN(C2CCC2)CC1
[1]
  Ki: 0.041 µM

## CC(C)N1CCN(C(=O)c2ccc(Oc3ccc(Cl)cc3)nc2)CC1
[1]
  Ki: 0.073 µM

## O=C(c1ccc(Oc2ccc(Cl)c(Cl)c2)nc1)N1CCCN(C2CCC2)CC1
[1]
  Ki: 0.0076 µM
[3]
  remaining at 0.5 h: 4%
[4]
  remaining at 0.5 h: 30%
[8]
  Activity: 100%
[5]
  concentration at 1 h: 4.79 µM
[6]
  concentration at 1 h: 1.52 µM

## CC(C)N1CCCN(C(=O)c2cccc(Oc3ccc(Cl)c(Cl)c3)n2)CC1
[1]
  Ki: 0.43 µM

## CC(C)N1CCN(C(=O)c2ccc(Oc3ccccc3)nc2)CC1
[1]
  Ki: 0.26 µM

## O=C(c1ccc(Oc2ccccc2)nc1)N1CCCN(C2CC2)CC1
[1]
  Ki: 0.01 µM

## O=C(c1ccc(Oc2ccc(F)cc2)nc1)N1CCCNCC1
[1]
  Ki: 9 µM

## O=C(c1ccc(Sc2ccccc2)cn1)N1CCCN(C2CCC2)CC1
[1]
  Ki: 0.0037 µM

## O=C(c1ccc(Oc2ccccc2)nc1)N1CCCN(C2CCC2)CC1
[1]
  Ki: 0.0044 µM
[16]
  Kb: 0.000269 µM
[2]
  Kb: 0.00372 µM
[3]
  remaining at 0.5 h: 90%
[4]
  remaining at 0.5 h: 99%
[5]
  concentration at 1 h: 0.3 µM
[6]
  concentration at 1 h: 0.21 µM
[7]
  Ki: 0.015 µM

## O=C(c1cncc(Oc2ccccc2)c1)N1CCCN(C2CCC2)CC1
[1]
  Ki: 0.011 µM

## O=C(c1ccc(Oc2cccc(F)c2)nc1)N1CCCN(C2CC2)CC1
[1]
  Ki: 0.016 µM

## O=C(c1ccc(Oc2ccc(Cl)cc2)nc1)N1CCCN(C2CCC2)CC1
[1]
  Ki: 0.059 µM
[2]
  Kb: 0.00398 µM
[3]
  remaining at 0.5 h: 63%
[4]
  remaining at 0.5 h: 95%
[8]
  Activity: 95%
[5]
  concentration at 1 h: 2.62 µM
[6]
  concentration at 1 h: 4.47 µM
[7]
  Ki: 0.023 µM
[9]
  clearance: 2.16 L/h/kg
[10]
  Vd: 3 L/kg
[11]
  half-life: 1.3 h
[12]
  bioavailability: 62%
[13]
  IC50: > 10 µM
[14]
  inhibition at 10 µM: 23%
[15]
  IC50: 1.4 µM

## CC(C)N1CCN(C(=O)c2ccc(Oc3ccccc3Cl)nc2)CC1
[1]
  Ki: 0.031 µM

## O=C(c1ccc(Oc2ccc(Cl)c(Cl)c2)cn1)N1CCCN(C2CC2)CC1
[1]
  Ki: 0.01 µM

## CC(C)N1CCCN(C(=O)c2ccc(Oc3ccc(Cl)c(Cl)c3)nc2)CC1
[1]
  Ki: 0.018 µM

## CC(C)N1CCCN(C(=O)c2ccc(Oc3ccc(Cl)c(Cl)c3)cn2)CC1
[1]
  Ki: 0.0015 µM
[16]
  Kb: 0.000309 µM

## CN1CCCN(C(=O)c2ccc(Oc3ccc(F)cc3)nc2)CC1
[1]
  Ki: 0.86 µM

## CC(C)N1CCN(C(=O)c2ccc(Oc3cccc(C#N)c3)nc2)CC1
[1]
  Ki: 0.11 µM

## O=C(c1ccc(Oc2cccc(Cl)c2)nc1)N1CCCN(C2CCC2)CC1
[16]
  Kb: 0.000871 µM
[2]
  Kb: 0.00501 µM
[3]
  remaining at 0.5 h: 58%
[4]
  remaining at 0.5 h: 98%
[8]
  Activity: 96%
[5]
  concentration at 1 h: 1.72 µM
[6]
  concentration at 1 h: 0.63 µM
[9]
  clearance: 6.24 L/h/kg
[10]
  Vd: 5 L/kg
[11]
  half-life: 1 h
[12]
  bioavailability: 19%
[13]
  IC50: > 10 µM
[14]
  inhibition at 10 µM: 28%
[15]
  IC50: 1.6 µM

## N#Cc1cccc(Oc2ccc(C(=O)N3CCCN(C4CC4)CC3)cn2)c1
[1]
  Ki: 0.012 µM

## CC(C)N1CCN(C(=O)c2ccc(Oc3ccc(F)cc3)nc2)CC1
[1]
  Ki: 0.079 µM

## CC(C)N1CCN(C(=O)c2ccc(Oc3cccc(Cl)c3)nc2)CC1
[1]
  Ki: 0.1 µM

## O=C(c1ccc(Oc2ccc(Cl)cc2)cn1)N1CCCN(C2CCC2)CC1
[1]
  Ki: 0.0055 µM

## O=C(c1ccc(Oc2cccc(F)c2)cn1)N1CCCN(C2CCC2)CC1
[1]
  Ki: 0.0055 µM

## O=C(c1cccc(Oc2ccc(Cl)c(Cl)c2)n1)N1CCCN(C2CCC2)CC1
[1]
  Ki: 0.16 µM

## O=C(c1ccc(Oc2ccc(F)cc2)cn1)N1CCCN(C2CCC2)CC1
[1]
  Ki: 0.0029 µM
[16]
  Kb: 0.00141 µM
[2]
  Kb: 0.0263 µM
[3]
  remaining at 0.5 h: 56%
[4]
  remaining at 0.5 h: 95%
[8]
  Activity: 87%
[5]
  concentration at 1 h: 2.37 µM
[6]
  concentration at 1 h: 1.02 µM
[7]
  Ki: 0.024 µM
[9]
  clearance: 4.8 L/h/kg
[10]
  Vd: 4.5 L/kg
[11]
  half-life: 1 h
[12]
  bioavailability: 23%
[17]
  clearance: 2.1 L/h/kg
[18]
  Vd: 3.6 L/kg
[19]
  half-life: 1.9 h
[20]
  bioavailability: 14%

## O=C(c1cncc(Oc2ccc(F)cc2)c1)N1CCCN(C2CCC2)CC1
[1]
  Ki: 0.017 µM

## CSc1ccc(Oc2ccc(C(=O)N3CCN(C(C)C)CC3)cn2)cc1
[1]
  Ki: 0.23 µM

## O=C(c1ccc(Sc2ccc(F)cc2)cn1)N1CCCN(C2CCC2)CC1
[1]
  Ki: 0.0046 µM
[3]
  remaining at 0.5 h: 7%
[4]
  remaining at 0.5 h: 82%
[5]
  concentration at 1 h: 0.12 µM
[6]
  concentration at 1 h: 0.03 µM

## CC(C)N1CCN(C(=O)c2ccc(Oc3ccc(Cl)c(Cl)c3)nc2)CC1
[1]
  Ki: 0.078 µM

## O=C(c1ccc(Oc2ccccc2Cl)nc1)N1CCCN(C2CCC2)CC1
[1]
  Ki: 0.017 µM

## O=C(c1ccc(Oc2ccccc2F)cn1)N1CCCN(C2CCC2)CC1
[1]
  Ki: 0.0043 µM
[16]
  Kb: 0.000537 µM

## O=C(c1ccc(Oc2cccc(Cl)c2)cn1)N1CCCN(C2CCC2)CC1
[1]
  Ki: 0.0047 µM
